From patent US12527835B2, “Brevican-binding peptides for brain tumor imaging” (The Brigham and Women's Hospital, Inc., priority 2018, dated 2026)
Where a SMILES comes first, the peptide text is derived from it. Where no end group is shown, it is not given here. [ ]: non-standard residue; d: D form. The star is where a group is joined. X1 = O=C(O)c1cc(NC(=S)*)ccc1-c1c2ccc(=O)cc-2oc2cc(O)ccc12; Ahx = NCCCCCC(=O)O

Legend:
HEK-Bcan cells [1] = assay: Flow cytometry cell uptake, HEK-Bcan versus regular HEK cells; format: cell-based, human; conditions: Cy5.5-conjugated peptides, 5 μM
Description: (§1) Cells were washed once with PBS and then, treated with 1 mL of 2.5 mM EDTA to dissociate the cells. The EDTA was removed by centrifugation, and PBS supplemented with 10% FBS was added to create a single-cell suspension. All peptide stocks were dissolved in DMSO, and stored at −20° C. in the dark. Cells were incubated with each peptide (at the desired final concentration, between 1-10 μM) for 3 hrs at 37° C. in the dark under constant rotation. After incubation, cells were washed 3× with PBS with 10% FBS (by centrifugation at 7000 rpm for 3 mins each). Then, cells were resuspended in 3.7% formaldehyde for fixation, and finally washed once with PBS. Cells were evaluated for peptide uptake (mean fluorescence intensity) by flow cytometry (10,000-20,000 events).

GBM-6 cells = assay: Flow cytometry cell uptake in GBM-6 cells; format: cell-based, human
Description: as §1

intracranial GBM-6 tumor = assay: Intracranial GBM-6 tumor uptake analysis in nude mice; format: in vivo, mouse; conditions: i.v. tail vein, 100 μL of 500 μM
Description: For intracranial tumor implantation, animals were injected with 100,000 GBM-6 cells in the right frontal lobe of the mouse brain. Briefly, nude mice (6-8 weeks) were anaesthetized by i.p. injection with ketamine/xylazine/acepromazine mixed in 0.9% NaCl saline solution. Then, the mice heads were mounted onto a stereotactic frame, and sterilized by swabbing with iodine solution. An 8-10 mm sagittal incision was made with a scalpel, and the bregma of the skull was identified. A Hamilton syringe containing GBM-6 cells (in PBS; 3 μL volume) was inserted into the coronal suture of the skull at the following coordinates from the bregma: 2 mm right and 0.5 mm forward. The tip of the needle was lowered/implanted into the brain (3.5 mm distance). GBM-6 cells were injected slowly (0.1 μL per 10 seconds). After that, the needle was retracted, and the skin around the incision was sutured back together. Mice were allowed to recover after surgery (meloxicam were given as analgesia post-surgery). […] After 8 hrs, mice were sacrificed and their brains excised, cryosectioned, stained with Hoechst dye and imaged by fluorescence microscopy. […] The mean Cy5.5 fluorescence intensity of the tumor was performed on ImageJ and compared with the mean fluorescence intensity on the non-tumor area on the contralateral (left) side of the brain.

[2] = In vivo analysis of BBB permeability in non-tumor bearing mice; design: species or system mouse; conditions: i.v., 100 μL of 100 μM, 4 hrs
Description: To measure BBB penetration, naïve nude mice were injected intravenously via the tail vein with either Cy5.5-labeled BTP-7 or a scramble (Cy5.5-Scr-7) peptide (100 μL of 100 μM peptide solution). 4 hrs later, mice were injected with 100 μL of 50 mg/mL TRITC-dextran (155 kDa) via the tail vein. Mice were euthanized after 30 mins, and their brains excised, frozen and cryo-sectioned into 16 μm slices. Tissue sections from the frontal lobe were imaged by confocal microscopy using a 20× objective. Areas with high TRITC (red in original) signal indicate regions of high perfusion (i.e. blood vessels). Cy5.5 (peptide) intensity was measured in areas outside of visible TRITC signal to ensure that only peptide intensity in the brain parenchyma (peptide that has successfully extravasated from the vessels and accumulated in the brain tissues) was quantified.

[3] = healthy mice, 4 hours post-intravenous administration, IVIS
Description: The lyophilized BTP-7-Cy5.5 powders were dissolved to a final concentration of 10 mM in DMSO by mass. The peptide was then diluted to a concentration of 100 μM in a solution of 50:50 polyethylene glycol (PEG)-300:0.9% sodium chloride (v/v) irrigation solution. A 100 μL dose of each peptide solution was administered intravenously via the tail vein into healthy 8-week old female nude mice. After 4 hours, 100 μL of 50 mg/mL tetramethylrhodamine isothiocyanate-labeled dextran (155 kDa) in 0.9% sodium chloride was injected via the tail vein. Mice were sacrificed 30 min later by cervical dislocation. The brain, heart, lungs, kidneys, spleen, and liver were excised from each mouse, frozen on dry ice and imaged using an In Vivo Imaging System (Perkin Elmer) at an excitation of 640 nm. Using Living Image software, regions of interest were drawn around each organ and the total radiant efficiency of Cy5.5 from each organ was quantified.

HEK-Bcan cells [4] = assay: Flow cytometry blocking study with 50× molar excess of unlabeled peptide; format: cell-based, human; conditions: fluorescein-conjugated peptide 1 μM
Description: as §1
For blocking studies, cells were dissociated as described above and resuspended in cold PBS with 10% FBS. Cells were then incubated with a 50× molar excess of unlabeled peptide for 10 mins on ice, before adding the corresponding FITC-labeled peptide at a final concentration of 1 μM and incubated for 1.5 hrs on ice. Cells were then washed with cold PBS with 10% FBS, fixed and analyzed by flow cytometry.

BT188 glioma stem cells = assay: Peptide uptake in BT188 (BΔg-high) versus BT145 (BΔg-low) glioma stem cells, fluorescence imaging; format: cell-based, human; conditions: fluorescein-labeled peptides, 5 μM
Description: FIGS. 3A-I. Peptide characterization for BΔg specificity in glioma stem cells. (a) Table summary listing the properties of 7 peptides (composed of 8 D-amino acid residues, SEQ ID NOs:3-9, in order of appearance) that were isolated from the OBOC library screen. MW=molecular weight; KD=Kyte-Doolittle scale for amino acid hydropathy (positive scores indicate […]) (Kyte and Doolittle, J. Mol. Biol. 157, 105-132 (1982)). (b) Chemical structure showing the linkage between the peptide and FITC. (c) Western blot analysis showing the level of BΔg and Bcan in human embryo kidney (HEK) cells, and Bcan-overexpressing HEK cells (HEK-Bcan). […] Each group was normalized to a no-blocking (vehicle) control. Statistics were performed using multiple t-tests, and significance was measured in comparison to each vehicle control (p<0.0001). (e) Uptake of fluorescein-labeled BTP-2, 7, 8, 9, and 10 (at 5 μM conc.) in BT188 (BΔg-high) or BT145 (BΔg-low) glioma stem cells (GSCs). Western blot analysis on the top right confirms the BΔg expression level. […] Statistics were performed using the two-way ANOVA and Tukey's Multiple Comparison test. (f) Chemical structure showing the linkage between the peptide and Cy5.5 dye. (g) Western blot analysis showing the expression of BΔg in GBM-6 cells, with negligible BΔg level in astrocytes or neural progenitor cells (NPC). (h) Graph showing the cell uptake ranking of the top 3 peptide candidates, BTP-7, 8 and 9 in GBM-6 cells as determined by flow cytometry analysis with s.d. error bars (5 μM conc.; nevents=20,000 cells; nexperiment=5). Each group is normalized to the control scramble peptide (Scr-8). Statistics were performed using the one-way ANOVA and Tukey's Multiple Comparison test (significance were measured in comparison to the Scr-8 control). (i) Bar graph showing the uptake of BTP-7, 8 and 9 in GBM-6 cells and NPC with 95% confidence interval error bars (1 μM conc.; nevents=20,000 cells). Statistics were performed using the two-way ANOVA and Sidak's Multiple Comparison test.

[5] = Solubility in aqueous solutions
[6] = target: T1, recombinant BΔg protein (deglycosylated brevican) (Homo sapiens, UniProt Q96GW7); assay: Octet steady state binding affinity to recombinant BΔg; conditions: KD of labeled versus unlabeled peptide
T1 construct: purchased R&D Systems 4009-BC-050
T1 sequence (Q96GW7 23-911): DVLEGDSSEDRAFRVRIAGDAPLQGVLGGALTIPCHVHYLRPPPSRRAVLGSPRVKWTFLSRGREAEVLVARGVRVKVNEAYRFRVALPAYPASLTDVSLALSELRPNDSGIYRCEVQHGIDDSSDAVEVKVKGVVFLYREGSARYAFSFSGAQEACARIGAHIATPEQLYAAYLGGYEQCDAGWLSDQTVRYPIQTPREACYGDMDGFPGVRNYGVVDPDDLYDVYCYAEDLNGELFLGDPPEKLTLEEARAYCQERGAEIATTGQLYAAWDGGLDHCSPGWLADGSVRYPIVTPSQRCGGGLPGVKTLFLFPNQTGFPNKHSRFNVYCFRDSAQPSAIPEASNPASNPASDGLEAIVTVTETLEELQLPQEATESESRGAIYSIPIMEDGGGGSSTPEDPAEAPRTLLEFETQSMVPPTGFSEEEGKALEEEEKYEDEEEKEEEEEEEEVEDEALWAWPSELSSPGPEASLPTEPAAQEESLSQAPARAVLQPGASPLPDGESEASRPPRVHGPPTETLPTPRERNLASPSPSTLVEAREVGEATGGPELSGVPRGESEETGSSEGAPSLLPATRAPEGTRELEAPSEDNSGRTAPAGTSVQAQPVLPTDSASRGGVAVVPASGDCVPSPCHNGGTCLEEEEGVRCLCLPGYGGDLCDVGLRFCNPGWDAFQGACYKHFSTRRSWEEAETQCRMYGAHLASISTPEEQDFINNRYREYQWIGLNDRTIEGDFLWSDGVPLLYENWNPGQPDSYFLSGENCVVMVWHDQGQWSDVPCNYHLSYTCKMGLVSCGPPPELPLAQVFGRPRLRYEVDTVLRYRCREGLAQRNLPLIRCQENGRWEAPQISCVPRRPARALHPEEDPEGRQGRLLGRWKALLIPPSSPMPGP
Description: A ForteBio OctetRed384 instrument was used to study the binding kinetics of each peptide to recombinant human brevican (re-suspended in PBS and 0.1 mM EDTA, pH 6.8). The brevican protein was deglycosylated prior to experimental use in water+0.05% tween, PI, sialidase, 0-glycosidase, N-glycosidase in sodium acetate [200 mM], NaCl [250 mM], Tris-HCl [200 mM], pH 7.5.) in the presence of protease inhibitor overnight at 4° C. (this entire composition will be referred to as ‘de-glycosylation buffer’). […] The final volume for all the solutions was 80 μl/well. Assays were performed at 30° C. in solid black 384-well plates (Geiger Bio-One). Prior to beginning, Ni-NTA biosensors were soaked for 10 min in working buffer. Before loading the protein onto each biosensor, a baseline was established in working buffer for 60 s. Deglycosylated brevican (50 μg/ml BΔg; His-tagged) was loaded on the surface of each biosensors for 180 s. […] Reference biosensors were also included in the plate as internal controls, where biosensors were exposed to the ‘de-glycosylation buffer’ lacking brevican protein during the loading step. A 60 s biosensor washing step was applied. Then, biosensors were exposed to the analyte (peptide) in working buffer (ranging between 0-10 μM BTP) for 300 s during the ‘association’ step. Finally, the biosensors were exposed to working buffer (without peptide) during the ‘dissociation’ step for 600 s. Binding affinity of each peptide was assessed through steady state analysis, where the response unit was plotted over peptide concentration. All data was plotted and curves were fitted using the non-linear ‘one-site specific binding’ fit, and the dissociation constant (KD) value was calculated using the GraphPad Prism software.
Binding kinetics analyses were performed using the Octet RED platform (Forte Bio) to measure the binding affinity of BTP-7, 8 and 9 to purified recombinant BΔg protein.

[7] = target: T2, glycosylated isoform of normal brevican (Bcan) (Homo sapiens, UniProt Q96GW7); assay: Octet steady state binding to fully glycosylated brevican (control); conditions: Octet steady state analysis
T2 construct: purchased R&D Systems 4009-BC-050
T2 sequence (Q96GW7 23-911): T1 sequence (Q96GW7 23-911)

Question: With `CC(C)[C@@H](NC(=O)[C@@H](Cc1c[nH]cn1)NC(=O)CNC(=O)[C@@H](Cc1c[nH]c2ccccc12)NC(=O)[C@@H](CCCCN)NC(=O)[C@H](N)[C@H](C)O)C(=O)N[C@H](CC(N)=O)C(=O)N[C@H](CCCCN)C(=O)NCCCCCC(=O)N[C@@H](Cc1cn(CCCNC(=O)CCCCC[N+]2=C(/C=C/C=C/C=C3/N(C)c4ccc5ccccc5c4C3(C)C)C(C)(C)c3c2ccc2ccccc32)nn1)C(N)=O` [BTP-7-Cy5.5] as the molecule, how does the “uptake in HEK-Bcan cells compared with regular HEK cells” value (HEK-Bcan cells [1]) read?
Answer: Its value is “significantly higher”.

Question: What about the “uptake in GBM-6 GSCs compared with astrocytes” value (GBM-6 cells; Cy5.5-conjugated peptides) of the same molecule?
Answer: Its value is “significantly higher”.

Question: And the “uptake in GBM-6 cells at 4° C. compared to 37° C.” value (GBM-6 cells; Cy5.5-conjugated peptides, 5 μM, inhibition of endocytosis)?
Answer: Its value is “significantly reduced”.

Question: What about the “cell uptake ranking in GBM-6 cells” value (GBM-6 cells; Cy5.5-labeled, 5 μM, normalized to Scr-8) of the same molecule?
Answer: The value was “highest uptake”.

Question: And the “tumor uptake compared to the control Cy5.5 dye (without peptide)” value (intracranial GBM-6 tumor; brain cryo-sections, mean Cy5.5 intensity in tumor)?
Answer: The value was “more than 10 times”.

Question: And the “fluorescence intensity of tumor compared to the contralateral area” value (intracranial GBM-6 tumor; tumor-to-non-tumor ratio)?
Answer: The value was 4 times.

Question: And the “accumulation in the brain parenchyma outside of regions of high perfusion” value ([2]; healthy non-tumor bearing mice, confocal microscopy)?
Answer: The value was “accumulated within the brain parenchyma”.

Question: And the “level of extravasation across the BBB compared with Scr-7” value ([2]; mean Cy5.5 intensity in parenchyma)?
Answer: The value was “higher that of Scr-7”.

Question: And the “fluorescence intensity in liver and kidneys” value [3]?
Answer: The value was “highest fluorescence intensity”.

Question: And the “uptake in brain and heart compared to other organs” value [3]?
Answer: Its value is “relatively low uptake”.

Question: What does the source list for “BTP-2: BΔg-targeting peptide of 8 D-amino acid residues from OBOC screen; sequence only in FIG. 3A ([dW][dR][dK][dA][dF][dT]G[dY]; not fully specified)”?
Answer: uptake in HEK-Bcan cells in the presence of the blocking peptide (HEK-Bcan cells [4]): reduced uptake; uptake in BT188 GSCs compared with BT145 GSCs (BT188 glioma stem cells): greater uptake; solubility in aqueous solutions compared to the other peptides [5]: more insoluble in aqueous solutions

Question: With `CC(C)[C@@H](NC(=O)[C@@H](Cc1c[nH]cn1)NC(=O)CNC(=O)[C@@H](Cc1c[nH]c2ccccc12)NC(=O)[C@@H](CCCCN)NC(=O)[C@H](N)[C@H](C)O)C(=O)N[C@H](CC(N)=O)C(=O)N[C@H](CCCCN)C(=O)NCCCCCC(=O)N[C@@H](CCCCNC(=S)Nc1ccc(-c2c3ccc(=O)cc-3oc3cc(O)ccc23)c(C(=O)O)c1)C(N)=O` [BTP-7 conjugated to a fluorescein dye] (H-[dT][dK][dW]G[dH][dV][dN][dK][Ahx]K(X1)-NH2) as the molecule, how does the “binding affinity relative to the unlabeled BTP-7 (times less)” value [6] read?
Answer: Its value is “more than 10 times”.

Question: What about the “binding to the glycosylated isoform of normal brevican” value [7] of the same molecule?
Answer: The value was “does not bind”.
